Source: paper PMC11753601 (Angewandte Chemie (International Ed. in English), 2024)

Tested on: E-Box DNA
Assay type: binding
Conditions: pH 8

| Substance | Binding to E-Box DNA in EMSA (in words) | Kd (read-out: KD for E-Box DNA measured by EMSA) [nM] |
| --- | --- | --- |
| (AcATEENVKRRTHNVLERQRRNELKRSFFG)2K (sidechain bridge or staple) [MiniMYC 1] | no binding | – |
| (AcATEENVKRRTHNVLERQRRNELKRSSCFA)2-Linker (sidechain bridge or staple) [MiniMYC 3] | did not show any specific association | – |
| (AcVKRRTHNVLERQRRNELKRSFFALRDQIPELENNEKAPKVVILKKATAYILSAβC)2-linker (sidechain bridge or staple) [DuoMYC 7] | – | ~174 |
